Read-outs that look alike come from different tables or passages of the source.
Tests used:
Experiment in all cases: biochemical
AKT3 = AKT3 (Homo sapiens, UniProt Q9Y243)
BMPR2 = target: T1, BMPR2 (Homo sapiens, UniProt Q13873)
T1 sequence (Q13873 1-1038): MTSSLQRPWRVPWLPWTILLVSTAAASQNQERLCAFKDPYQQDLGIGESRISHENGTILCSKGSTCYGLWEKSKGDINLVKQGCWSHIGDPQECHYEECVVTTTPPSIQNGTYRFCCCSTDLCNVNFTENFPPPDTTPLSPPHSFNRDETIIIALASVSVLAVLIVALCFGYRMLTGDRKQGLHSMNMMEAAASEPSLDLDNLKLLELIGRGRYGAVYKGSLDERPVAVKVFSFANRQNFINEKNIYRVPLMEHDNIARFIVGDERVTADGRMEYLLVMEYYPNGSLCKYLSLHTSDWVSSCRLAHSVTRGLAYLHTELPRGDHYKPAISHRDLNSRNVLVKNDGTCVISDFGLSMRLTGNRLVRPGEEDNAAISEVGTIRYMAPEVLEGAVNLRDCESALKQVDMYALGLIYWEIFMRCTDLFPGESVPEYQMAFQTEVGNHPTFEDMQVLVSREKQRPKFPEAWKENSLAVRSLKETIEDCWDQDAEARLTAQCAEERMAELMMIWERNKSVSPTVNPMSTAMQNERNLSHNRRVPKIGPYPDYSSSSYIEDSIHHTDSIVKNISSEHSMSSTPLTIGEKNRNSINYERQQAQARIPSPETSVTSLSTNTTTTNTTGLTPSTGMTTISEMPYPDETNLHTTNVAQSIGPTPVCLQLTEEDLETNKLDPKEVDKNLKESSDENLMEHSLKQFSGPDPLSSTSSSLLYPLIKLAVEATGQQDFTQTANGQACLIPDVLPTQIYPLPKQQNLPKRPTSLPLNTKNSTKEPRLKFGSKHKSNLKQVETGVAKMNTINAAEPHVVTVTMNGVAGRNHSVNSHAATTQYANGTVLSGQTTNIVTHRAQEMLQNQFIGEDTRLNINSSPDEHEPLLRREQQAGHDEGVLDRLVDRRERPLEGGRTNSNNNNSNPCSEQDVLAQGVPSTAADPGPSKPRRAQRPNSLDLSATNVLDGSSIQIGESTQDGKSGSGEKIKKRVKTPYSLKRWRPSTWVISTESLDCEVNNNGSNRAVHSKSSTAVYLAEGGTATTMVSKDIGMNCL

BRAF = BRAF (Homo sapiens, UniProt P15056)
CHK2 = CHK2 (Homo sapiens, UniProt O96017)
EpHA5 = EpHA5 (Homo sapiens, UniProt P54756)
FECH = target: T2, FECH (Homo sapiens, UniProt P22830)
T2 sequence (P22830 1-423): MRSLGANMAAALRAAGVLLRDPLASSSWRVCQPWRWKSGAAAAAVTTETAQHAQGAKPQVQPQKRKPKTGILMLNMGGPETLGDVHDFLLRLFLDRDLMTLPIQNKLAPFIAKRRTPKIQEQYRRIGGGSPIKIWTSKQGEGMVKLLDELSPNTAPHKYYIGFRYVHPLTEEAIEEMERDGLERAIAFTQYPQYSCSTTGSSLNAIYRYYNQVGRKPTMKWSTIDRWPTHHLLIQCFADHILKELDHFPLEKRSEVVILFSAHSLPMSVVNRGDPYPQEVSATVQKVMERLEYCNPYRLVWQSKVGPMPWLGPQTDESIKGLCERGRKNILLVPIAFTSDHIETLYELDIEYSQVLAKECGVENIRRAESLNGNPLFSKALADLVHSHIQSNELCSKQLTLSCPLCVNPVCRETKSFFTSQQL

FGFR1 = FGFR1 (Homo sapiens, UniProt P11362)
GPRK5 = GPRK5 (Homo sapiens, UniProt P34947)
MAP2K4 = target: T3, MAP2K4 (Homo sapiens, UniProt P45985)
T3 sequence (P45985 1-399): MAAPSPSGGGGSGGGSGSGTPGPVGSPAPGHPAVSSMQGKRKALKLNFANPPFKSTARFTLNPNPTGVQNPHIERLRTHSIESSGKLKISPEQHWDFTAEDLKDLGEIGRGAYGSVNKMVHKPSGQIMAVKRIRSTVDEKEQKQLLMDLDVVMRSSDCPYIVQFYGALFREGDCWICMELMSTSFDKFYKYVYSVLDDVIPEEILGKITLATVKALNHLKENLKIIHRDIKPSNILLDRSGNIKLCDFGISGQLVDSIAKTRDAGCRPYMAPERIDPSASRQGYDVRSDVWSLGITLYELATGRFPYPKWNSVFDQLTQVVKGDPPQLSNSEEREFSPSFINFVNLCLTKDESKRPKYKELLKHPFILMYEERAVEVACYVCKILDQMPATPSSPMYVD

SLK = SLK (Homo sapiens, UniProt Q9H2G2)
SLK, sequence (Q9H2G2 whole entry): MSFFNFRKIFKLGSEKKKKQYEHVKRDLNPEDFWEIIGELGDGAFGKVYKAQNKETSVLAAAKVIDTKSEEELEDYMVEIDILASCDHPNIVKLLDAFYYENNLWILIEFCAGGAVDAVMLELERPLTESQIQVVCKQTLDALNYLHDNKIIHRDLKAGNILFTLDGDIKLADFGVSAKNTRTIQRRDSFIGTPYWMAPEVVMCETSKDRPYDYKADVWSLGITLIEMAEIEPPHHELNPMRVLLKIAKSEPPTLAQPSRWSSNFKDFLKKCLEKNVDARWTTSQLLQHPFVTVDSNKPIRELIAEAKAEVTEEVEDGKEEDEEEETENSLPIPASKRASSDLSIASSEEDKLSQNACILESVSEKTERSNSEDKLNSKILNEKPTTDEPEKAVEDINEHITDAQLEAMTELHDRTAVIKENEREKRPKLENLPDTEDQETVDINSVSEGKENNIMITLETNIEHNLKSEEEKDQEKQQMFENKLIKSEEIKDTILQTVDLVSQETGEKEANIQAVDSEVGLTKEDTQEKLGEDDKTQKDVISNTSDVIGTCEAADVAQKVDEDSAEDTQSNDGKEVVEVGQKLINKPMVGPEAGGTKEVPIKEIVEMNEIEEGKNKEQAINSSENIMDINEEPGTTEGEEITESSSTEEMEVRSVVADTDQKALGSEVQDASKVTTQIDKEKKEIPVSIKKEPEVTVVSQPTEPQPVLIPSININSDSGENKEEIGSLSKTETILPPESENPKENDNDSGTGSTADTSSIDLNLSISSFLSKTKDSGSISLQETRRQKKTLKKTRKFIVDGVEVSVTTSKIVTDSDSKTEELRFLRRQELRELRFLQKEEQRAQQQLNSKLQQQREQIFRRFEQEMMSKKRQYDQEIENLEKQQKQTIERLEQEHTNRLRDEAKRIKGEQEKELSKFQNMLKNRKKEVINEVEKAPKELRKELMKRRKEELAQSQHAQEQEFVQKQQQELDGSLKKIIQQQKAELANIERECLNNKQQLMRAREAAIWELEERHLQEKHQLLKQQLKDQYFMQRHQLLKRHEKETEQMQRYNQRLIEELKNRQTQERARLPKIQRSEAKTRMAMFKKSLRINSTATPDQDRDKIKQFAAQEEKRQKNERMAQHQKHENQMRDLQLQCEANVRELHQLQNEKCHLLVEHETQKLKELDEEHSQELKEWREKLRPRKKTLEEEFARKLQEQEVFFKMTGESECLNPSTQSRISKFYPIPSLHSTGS

FGFR1, sequence (P11362 whole entry): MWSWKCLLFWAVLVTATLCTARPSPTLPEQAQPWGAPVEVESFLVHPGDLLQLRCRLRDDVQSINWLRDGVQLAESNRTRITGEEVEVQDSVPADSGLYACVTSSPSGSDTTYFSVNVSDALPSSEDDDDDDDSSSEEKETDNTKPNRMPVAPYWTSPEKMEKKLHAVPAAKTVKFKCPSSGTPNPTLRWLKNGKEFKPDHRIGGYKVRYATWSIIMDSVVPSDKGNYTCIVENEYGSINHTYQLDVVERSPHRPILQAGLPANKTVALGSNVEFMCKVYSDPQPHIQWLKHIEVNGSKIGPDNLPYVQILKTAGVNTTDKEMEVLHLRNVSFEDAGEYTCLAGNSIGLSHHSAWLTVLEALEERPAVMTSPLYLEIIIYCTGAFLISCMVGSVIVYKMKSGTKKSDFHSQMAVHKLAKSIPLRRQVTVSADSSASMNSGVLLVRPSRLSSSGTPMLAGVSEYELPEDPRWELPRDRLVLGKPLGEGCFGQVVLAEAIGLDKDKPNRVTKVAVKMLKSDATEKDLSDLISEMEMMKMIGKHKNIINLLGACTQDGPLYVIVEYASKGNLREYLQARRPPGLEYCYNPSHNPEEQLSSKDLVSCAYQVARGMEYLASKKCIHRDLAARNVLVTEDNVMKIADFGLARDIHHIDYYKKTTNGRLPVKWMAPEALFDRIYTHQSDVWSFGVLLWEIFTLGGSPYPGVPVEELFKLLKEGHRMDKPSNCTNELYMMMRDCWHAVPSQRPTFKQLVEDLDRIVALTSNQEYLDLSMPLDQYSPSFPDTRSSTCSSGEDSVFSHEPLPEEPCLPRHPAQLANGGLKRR
AKT3, sequence (Q9Y243 whole entry): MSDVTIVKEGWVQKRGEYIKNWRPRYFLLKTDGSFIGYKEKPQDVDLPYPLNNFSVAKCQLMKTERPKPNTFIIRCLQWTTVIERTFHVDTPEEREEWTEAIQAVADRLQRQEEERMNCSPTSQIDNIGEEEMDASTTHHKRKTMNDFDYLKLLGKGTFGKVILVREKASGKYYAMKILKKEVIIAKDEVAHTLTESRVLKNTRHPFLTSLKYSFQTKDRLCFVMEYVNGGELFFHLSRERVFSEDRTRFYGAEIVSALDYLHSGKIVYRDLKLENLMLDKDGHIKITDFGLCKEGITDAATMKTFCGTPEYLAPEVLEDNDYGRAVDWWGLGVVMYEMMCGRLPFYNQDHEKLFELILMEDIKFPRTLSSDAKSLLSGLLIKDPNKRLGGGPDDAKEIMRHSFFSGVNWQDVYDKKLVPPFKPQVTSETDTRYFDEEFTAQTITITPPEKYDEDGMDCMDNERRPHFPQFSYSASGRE
GPRK5, sequence (P34947 whole entry): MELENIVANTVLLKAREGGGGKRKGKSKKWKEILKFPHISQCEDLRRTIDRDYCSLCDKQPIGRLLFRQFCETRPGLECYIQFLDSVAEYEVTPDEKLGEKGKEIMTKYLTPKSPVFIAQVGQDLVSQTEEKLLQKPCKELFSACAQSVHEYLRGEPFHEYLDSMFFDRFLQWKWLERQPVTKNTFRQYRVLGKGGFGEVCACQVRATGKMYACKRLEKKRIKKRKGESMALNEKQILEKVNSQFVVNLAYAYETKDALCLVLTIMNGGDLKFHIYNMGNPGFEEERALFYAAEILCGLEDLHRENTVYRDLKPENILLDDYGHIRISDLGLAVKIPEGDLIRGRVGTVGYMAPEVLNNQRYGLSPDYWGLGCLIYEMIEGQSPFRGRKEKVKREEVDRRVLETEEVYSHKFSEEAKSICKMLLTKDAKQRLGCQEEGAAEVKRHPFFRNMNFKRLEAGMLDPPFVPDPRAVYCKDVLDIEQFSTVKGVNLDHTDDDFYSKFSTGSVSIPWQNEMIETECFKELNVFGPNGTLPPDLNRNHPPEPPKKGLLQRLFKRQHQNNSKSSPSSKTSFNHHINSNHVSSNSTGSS
CHK2, sequence (O96017 whole entry): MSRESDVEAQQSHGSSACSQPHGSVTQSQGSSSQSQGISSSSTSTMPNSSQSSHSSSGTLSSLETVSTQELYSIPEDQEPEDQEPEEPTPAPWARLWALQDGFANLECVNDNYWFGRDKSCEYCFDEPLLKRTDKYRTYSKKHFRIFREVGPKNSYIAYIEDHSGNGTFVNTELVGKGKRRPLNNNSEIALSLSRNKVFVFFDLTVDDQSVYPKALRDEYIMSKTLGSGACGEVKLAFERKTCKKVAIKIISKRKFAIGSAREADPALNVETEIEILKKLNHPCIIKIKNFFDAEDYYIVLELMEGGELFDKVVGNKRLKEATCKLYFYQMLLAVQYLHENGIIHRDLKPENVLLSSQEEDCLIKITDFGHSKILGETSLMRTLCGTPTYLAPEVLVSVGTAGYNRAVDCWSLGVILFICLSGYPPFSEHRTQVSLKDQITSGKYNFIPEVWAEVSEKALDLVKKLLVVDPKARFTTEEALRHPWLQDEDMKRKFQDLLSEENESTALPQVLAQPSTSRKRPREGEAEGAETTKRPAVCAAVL
EpHA5, sequence (P54756 whole entry): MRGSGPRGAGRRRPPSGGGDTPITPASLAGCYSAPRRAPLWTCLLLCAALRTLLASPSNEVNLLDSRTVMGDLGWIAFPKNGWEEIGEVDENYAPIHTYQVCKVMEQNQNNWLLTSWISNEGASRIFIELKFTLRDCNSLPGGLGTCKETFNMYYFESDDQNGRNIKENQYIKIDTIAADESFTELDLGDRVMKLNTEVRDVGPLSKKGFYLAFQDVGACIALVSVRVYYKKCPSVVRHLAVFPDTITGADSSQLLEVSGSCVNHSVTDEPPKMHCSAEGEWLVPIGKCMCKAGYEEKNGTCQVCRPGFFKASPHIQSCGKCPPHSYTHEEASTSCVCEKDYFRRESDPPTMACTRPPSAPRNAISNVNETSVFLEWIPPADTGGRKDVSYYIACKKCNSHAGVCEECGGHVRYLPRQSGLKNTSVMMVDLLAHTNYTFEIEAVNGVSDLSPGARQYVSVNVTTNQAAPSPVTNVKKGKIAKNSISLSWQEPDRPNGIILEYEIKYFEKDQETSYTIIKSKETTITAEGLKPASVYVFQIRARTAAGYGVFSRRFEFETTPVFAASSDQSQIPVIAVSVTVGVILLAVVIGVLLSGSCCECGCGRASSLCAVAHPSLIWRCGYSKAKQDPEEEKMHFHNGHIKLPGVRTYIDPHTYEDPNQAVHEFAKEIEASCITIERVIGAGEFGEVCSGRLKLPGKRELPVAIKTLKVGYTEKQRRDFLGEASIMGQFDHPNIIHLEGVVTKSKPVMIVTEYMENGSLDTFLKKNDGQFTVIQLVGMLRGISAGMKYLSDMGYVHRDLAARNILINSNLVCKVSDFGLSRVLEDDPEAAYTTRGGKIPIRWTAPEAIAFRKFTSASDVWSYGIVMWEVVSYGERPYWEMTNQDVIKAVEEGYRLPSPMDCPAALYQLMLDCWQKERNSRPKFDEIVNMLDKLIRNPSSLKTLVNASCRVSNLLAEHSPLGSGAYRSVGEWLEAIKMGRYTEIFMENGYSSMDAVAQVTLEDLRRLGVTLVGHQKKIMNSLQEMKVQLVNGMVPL

With `CNc1ncc2cc(-c3cc(Br)ccc3Cl)c(=O)n(CCCCN)c2n1` [compound 6, 8-(4-Aminobutyl)-6-(5-bromo-2-chlorophenyl)-2-(methylamino)pyrido[2,3-d]pyrimidin-7(8H)-one] the ΔTm at 10 µM (AKT3; read-out: dTm 6) was 0.2 °C, the ΔTm at 10 µM (BMPR2; read-out: dTm 6) was -0.3 °C and the ΔTm at 10 µM (BRAF; read-out: dTm 6) was 10.8 °C. It also gave a ΔTm at 10 µM (CHK2; read-out: dTm 6) of 0.4 °C, a ΔTm at 10 µM (EpHA5; read-out: dTm 6) of 4.5 °C and a ΔTm at 10 µM (FECH; read-out: dTm 6) of 0.2 °C. It also gave a ΔTm at 10 µM (FGFR1; read-out: dTm 6) of 3 °C, a ΔTm at 10 µM (GPRK5; read-out: dTm 6) of 0 °C and a ΔTm at 10 µM (MAP2K4; read-out: dTm 6) of 2.5 °C.
Work on `CNc1ncc2cc(-c3cc(F)ccc3F)c(=O)n(CCCCN)c2n1` [compound 5, 8-(4-Aminobutyl)-6-(2,5-difluorophenyl)-2-(methylamino)pyrido[2,3-d]pyrimidin-7(8H)-one] yielded a ΔTm at 10 µM (AKT3; read-out: dTm MR22 (5)) of 0.5 °C, a ΔTm at 10 µM (BMPR2; read-out: dTm MR22 (5)) of 0.3 °C and a ΔTm at 10 µM (BRAF; read-out: dTm MR22 (5)) of 9.2 °C. It also gave a ΔTm at 10 µM (CHK2; read-out: dTm MR22 (5)) of 0.4 °C, a ΔTm at 10 µM (FECH; read-out: dTm MR22 (5)) of 0.3 °C and a ΔTm at 10 µM (FGFR1; read-out: dTm MR22 (5)) of 3.4 °C. The ΔTm at 10 µM (GPRK5; read-out: dTm MR22 (5)) was -0.6 °C, the ΔTm at 10 µM (MAP2K4; read-out: dTm MR22 (5)) was 1.5 °C and the ΔTm at 10 µM (SLK; read-out: dTm MR22 (5)) was -0.6 °C.
In the case of `CNc1ncc2cc(-c3ccc(-c4cccc(C)n4)cc3Cl)c(=O)n(CC3OCC(N)CO3)c2n1` (stereo not drawn) [compound 2, G-5555], the “dTm G-5555 (2)” value (AKT3; 10 µM, binder) is reported as 1.4 °C, the “dTm G-5555 (2)” value (BMPR2; 10 µM, binder) is reported as -0.4 °C and the “dTm G-5555 (2)” value (BRAF; 10 µM, binder) is reported as 3.9 °C. For the same compound, the “dTm G-5555 (2)” value (CHK2; 10 µM, binder) was 0.9 °C, the “dTm G-5555 (2)” value (EpHA5; 10 µM, binder) was 2.7 °C and the “dTm G-5555 (2)” value (FGFR1; 10 µM, binder) was -0.1 °C. The “dTm G-5555 (2)” value (GPRK5; 10 µM, binder) was -0.2 °C, the “dTm G-5555 (2)” value (MAP2K4; 10 µM, binder) was 6.4 °C and the “dTm G-5555 (2)” value (SLK; 10 µM, binder) was 7.2 °C.
`CNc1ncc2cc(-c3ccccc3Cl)c(=O)n(CCCCN)c2n1` [compound 4, 8-(4-Aminobutyl)-6-(2-chlorophenyl)-2-(methylamino)pyrido[2,3-d]pyrimidin-7(8H)-one] showed a ΔTm at 10 µM (AKT3; read-out: dTm MR21 (4)) of 0.7 °C, a ΔTm at 10 µM (BMPR2; read-out: dTm MR21 (4)) of 1.6 °C and a ΔTm at 10 µM (BRAF; read-out: dTm MR21 (4)) of 12.2 °C. It also gave a ΔTm at 10 µM (CHK2; read-out: dTm MR21 (4)) of 0.9 °C, a ΔTm at 10 µM (FECH; read-out: dTm MR21 (4)) of -1.1 °C and a ΔTm at 10 µM (FGFR1; read-out: dTm MR21 (4)) of 3.3 °C. It also gave a ΔTm at 10 µM (GPRK5; read-out: dTm MR21 (4)) of -1.2 °C, a ΔTm at 10 µM (MAP2K4; read-out: dTm MR21 (4)) of 3.3 °C and a ΔTm at 10 µM (SLK; read-out: dTm MR21 (4)) of 1.6 °C.
`CNc1ncc2cc(-c3cc(Br)ccc3Cl)c(=O)n(C[C@H]3OC[C@H](N)CO3)c2n1` [compound 7, 8-(((2r,5r)-5-Amino-1,3-dioxan-2-yl)methyl)-6-(5-bromo-2-chlorophenyl)-2-(methylamino)pyrido[2,3-d]pyrimidin-7(8H)-one] showed a ΔTm at 10 µM (AKT3; read-out: dTm 7) of 0 °C, a ΔTm at 10 µM (BMPR2; read-out: dTm 7) of 0 °C and a ΔTm at 10 µM (BRAF; read-out: dTm 7) of 8.3 °C. The ΔTm at 10 µM (CHK2; read-out: dTm 7) was 0.2 °C, the ΔTm at 10 µM (EpHA5; read-out: dTm 7) was 3.2 °C and the ΔTm at 10 µM (FECH; read-out: dTm 7) was -1.1 °C. The ΔTm at 10 µM (FGFR1; read-out: dTm 7) was 2.9 °C, the ΔTm at 10 µM (GPRK5; read-out: dTm 7) was 0.2 °C and the ΔTm at 10 µM (MAP2K4; read-out: dTm 7) was 2.1 °C.

— doi:10.1101/2023.03.24.534094v2 (biorxiv, 2023)
